Reference: US4339535A, “Process for preparing antibiotic EM 4940” (E. R. Squibb & Sons, Inc., priority 1980, dated 1982)
Converted amounts (≈) assume the structure as drawn. Read-outs that look alike come from different tables or passages of the source.

What was measured:
Shigella sonnei [1] = assay: MIC aerobic screen, BA-2 agar; assay type: cell-based; conditions: strain 8449
Shigella sonnei [2] = assay: MIC aerobic screen, H-59 synthetic agar; assay type: cell-based; conditions: Table III, H-59 agar, strain 8449, read-out: Minimum Inhibitory Concentration
Source text: (A) Using H-59 Synthetic Agar

Clostridium septicum = assay: MIC anaerobic screen; assay type: cell-based; conditions: Table IV, strain 1780, read-out: Minimum Inhibitory Concentration
Method: (§1) The antibiotic is prepared as described above for the aerobic screen.
(§2) All organisms are maintained in a tube of chopped meat broth with glucose supplied by Scott Laboratories in Rhode Island. Two days prior to running the test 0.1 ml of the maintained culture is transferred to a fresh tube of chopped meat broth, and the tube is incubated at 37° C. for 48 hours. After 48 hours incubation each culture is assumed to have grown to 1×10^8 CFU/ml.
(§3) The organisms are stamped onto antibiotic containing agar plates (Mueller Hinton Agar BBL+5% whole sheep blood+0.2% lysed sheep blood) to give an inoculum level of 10^5 CFU.
(§4) After stamping, the plates are placed in an anaerobic gas pack system (BBL) and incubated at 37° C. for 18 hours.

Clostridium sporogenes = assay: MIC anaerobic screen; assay type: cell-based; conditions: Table IV, strain 2372, read-out: Minimum Inhibitory Concentration
Method: as §1, §2, §3, §4

Eubacterium lentum = assay: MIC anaerobic screen; assay type: cell-based; conditions: Eggerthella lenta, Table IV, strain 11,261, read-out: Minimum Inhibitory Concentration
Method: as §1, §2, §3, §4

[3] = system: Fusobacterium necrophorum; assay: MIC anaerobic screen; assay type: cell-based; conditions: Table IV, strain 11,338, read-out: Minimum Inhibitory Concentration
Method: as §1, §2, §3, §4

T. mentagrophytes = assay: MIC against dermatophytes; assay type: cell-based; conditions: Trichophyton mentagrophytes; Table VI; strain 2637; 26° C., 48 hours; read-out: Minimum Inhibitory Concentration
E. floccosum = assay: MIC against dermatophytes; assay type: cell-based; conditions: Epidermophyton floccosum; Table VI; strain 9185; 26° C., 48 hours; read-out: Minimum Inhibitory Concentration
[4] = system: gram-positive and gram-negative bacteria, yeasts, fungi, acholeplasma, and the protozoan Trichomonas vaginalis; assay: biological activity, general statement; conditions: A form versus B form
Escherichia coli = assay: MIC aerobic screen, BA-2 agar; conditions: Escherichia coli
Klebsiella aerogenes = assay: MIC aerobic screen, BA-2 agar; conditions: Klebsiella aerogenes, strain 10,436
Klebsiella pneumoniae = assay: MIC aerobic screen, BA-2 agar
Staphylococcus aureus = assay: MIC aerobic screen, BA-2 agar; conditions: Staphylococcus aureus
Proteus rettgeri = assay: MIC aerobic screen, BA-2 agar; conditions: Providencia rettgeri, read-out: Minimum Inhibitory Concentration
[5] = system: Acinetobacter calcoaceticus; assay: MIC aerobic screen, H-59 synthetic agar; conditions: read-out: Minimum Inhibitory Concentration
Enterobacter cloacae = assay: MIC aerobic screen, H-59 synthetic agar; conditions: read-out: Minimum Inhibitory Concentration
Pseudomonas aeruginosa = assay: MIC aerobic screen, H-59 synthetic agar
Salmonella typhimurium = assay: MIC aerobic screen, H-59 synthetic agar; conditions: Salmonella enterica, read-out: Minimum Inhibitory Concentration

## CC1(O)CC(C(N)=O)N=C1c1ncccc1O (stereo not drawn) [EM4940A, 2,4-trans-3,4-dihydro-4-hydroxy-5-(3-hydroxy-2-pyridinyl)-4-methyl-2H-pyrrole-2-carboxamide]
Shigella sonnei [1]; Shigella sonnei, Table I, BA-2 agar, read-out: Minimum Inhibitory Concentration
  MIC: 50 µg/mL (≈ 213 µM)
Shigella sonnei [1]; Table II, additional tests
  Minimum Inhibitory Concentration: 50 µg/mL
Shigella sonnei [2]
  MIC: 50 µg/mL (≈ 213 µM)
Clostridium septicum
  MIC: 12.5 µg/mL (≈ 53.1 µM)
Clostridium sporogenes
  MIC: 12.5 µg/mL (≈ 53.1 µM)
Eubacterium lentum
  MIC: 12.5 µg/mL (≈ 53.1 µM)
[3]
  MIC: 12.5 µg/mL (≈ 53.1 µM)
T. mentagrophytes
  MIC: > 100 µg/mL
E. floccosum
  MIC: > 100 µg/mL
[4]
  biological activity of A form relative to B form: more active than the B form
Escherichia coli; read-out: Minimum Inhibitory Concentration, Table I, BA-2 agar, strain 10,404
  MIC: 100 µg/mL (≈ 425 µM)
Escherichia coli; read-out: Minimum Inhibitory Concentration, Table I, BA-2 agar, strain 10,857
  MIC: 50 µg/mL (≈ 213 µM)
Escherichia coli; read-out: Minimum Inhibitory Concentration, Table I, BA-2 agar, strain 10,896
  MIC: 25 µg/mL (≈ 106 µM)
Escherichia coli; read-out: Minimum Inhibitory Concentration, Table II, additional tests, strain 10,404
  MIC: 50 µg/mL (≈ 213 µM)
Escherichia coli; read-out: Minimum Inhibitory Concentration, Table II, additional tests, strain 10,857
  MIC: 50 µg/mL (≈ 213 µM)
Klebsiella aerogenes; read-out: Minimum Inhibitory Concentration, Table I, BA-2 agar
  MIC: 100 µg/mL (≈ 425 µM)
Klebsiella aerogenes; read-out: Minimum Inhibitory Concentration, Table II, additional tests
  MIC: 50 µg/mL (≈ 213 µM)
Klebsiella pneumoniae; Klebsiella pneumoniae, read-out: Minimum Inhibitory Concentration
  MIC: 50 µg/mL (≈ 213 µM)
Klebsiella pneumoniae; Table II, additional tests, strain 11,066
  Minimum Inhibitory Concentration: 50 µg/mL
Staphylococcus aureus; read-out: Minimum Inhibitory Concentration, Table I, BA-2 agar, strain 2400
  MIC: > 100 µg/mL
Staphylococcus aureus; read-out: Minimum Inhibitory Concentration, Table I, BA-2 agar, strain 10,165
  MIC: 50 µg/mL (≈ 213 µM)
Staphylococcus aureus; read-out: Minimum Inhibitory Concentration, Table I, BA-2 agar, strain 11,239
  MIC: > 100 µg/mL
Staphylococcus aureus; read-out: Minimum Inhibitory Concentration, Table II, additional tests, strain 2400
  MIC: > 200 µg/mL
Staphylococcus aureus; read-out: Minimum Inhibitory Concentration, Table II, additional tests, strain 2661
  MIC: > 200 µg/mL
Staphylococcus aureus; read-out: Minimum Inhibitory Concentration, Table II, additional tests, strain 10,165
  MIC: 100 µg/mL (≈ 425 µM)
Staphylococcus aureus; read-out: Minimum Inhibitory Concentration, Table II, additional tests, strain 11,239
  MIC: 50 µg/mL (≈ 213 µM)
Proteus rettgeri
  MIC: 50 µg/mL (≈ 213 µM)
[5]
  MIC: 25 µg/mL (≈ 106 µM)
Enterobacter cloacae
  MIC: 100 µg/mL (≈ 425 µM)
Pseudomonas aeruginosa; read-out: Minimum Inhibitory Concentration, Table III, H-59 agar, strain 8754
  MIC: > 100 µg/mL
Pseudomonas aeruginosa; read-out: Minimum Inhibitory Concentration, Table III, H-59 agar, strain 9330
  MIC: 50 µg/mL (≈ 213 µM)
Pseudomonas aeruginosa; read-out: Minimum Inhibitory Concentration, Table III, H-59 agar, strain 9545
  MIC: 25 µg/mL (≈ 106 µM)
Salmonella typhimurium
  MIC: 50 µg/mL (≈ 213 µM)
